According to ChEMBL document CHEMBL5620356, “Sulfur-fluoride exchange (SuFEx)-enabled lead discovery of AChE inhibitors by fragment linking strategies” (Eur J Med Chem, 2023):
pIC50, pKi: −log10 of the molar value. Calls of active or inactive are those of the source. The calls are words filed in the database; no cut-off is given here.

Test system: not listed separately
Test: Permeability of the compound in PBS at pH 7.4 by incubated for 18 hrs by […] assay based UV- spectroscopy
Assay type: ADME
Details: read-out: permeability

SMILES | Papp at 18 h [×10⁻⁶ cm/s]
CN1C(C(=O)Nc2ccccn2)=C(O)c2ccccc2S1(=O)=O [PIROXICAM] | 9.9
O=C1N[C@@H]2C[C@@H](S(=O)(=O)NCCC3CCN(Cc4ccccc4)CC3)[C@@H]2c2c(Br)cccc21 | 10
CC(=O)[C@H]1CC[C@H]2[C@@H]3CCC4=CC(=O)CC[C@]4(C)[C@H]3CC[C@]12C [PROGESTERONE] | 16.4
C[C@]12CC[C@H]3[C@@H](CCC4=CC(=O)CC[C@@]43C)[C@@H]1CC[C@@H]2O [TESTOSTERONE] | 1.8
CN1C(=O)C(F)=C[C@@H]2[C@H]1C[C@H]2S(=O)(=O)NCCC1CCN(Cc2ccccc2)CC1 | 12.3
O=C1N[C@@H]2C[C@@H](S(=O)(=O)NCCC3CCN(Cc4ccccc4)CC3)[C@@H]2c2c(Cl)cccc21 | 13.1

Target: T1, Acetylcholinesterase (Electrophorus electricus, UniProt O42275)
Test: Inhibition of electric eel AChE incubated overnight by two fold serial dilution method
Details: not given

T1 sequence (O42275 whole entry): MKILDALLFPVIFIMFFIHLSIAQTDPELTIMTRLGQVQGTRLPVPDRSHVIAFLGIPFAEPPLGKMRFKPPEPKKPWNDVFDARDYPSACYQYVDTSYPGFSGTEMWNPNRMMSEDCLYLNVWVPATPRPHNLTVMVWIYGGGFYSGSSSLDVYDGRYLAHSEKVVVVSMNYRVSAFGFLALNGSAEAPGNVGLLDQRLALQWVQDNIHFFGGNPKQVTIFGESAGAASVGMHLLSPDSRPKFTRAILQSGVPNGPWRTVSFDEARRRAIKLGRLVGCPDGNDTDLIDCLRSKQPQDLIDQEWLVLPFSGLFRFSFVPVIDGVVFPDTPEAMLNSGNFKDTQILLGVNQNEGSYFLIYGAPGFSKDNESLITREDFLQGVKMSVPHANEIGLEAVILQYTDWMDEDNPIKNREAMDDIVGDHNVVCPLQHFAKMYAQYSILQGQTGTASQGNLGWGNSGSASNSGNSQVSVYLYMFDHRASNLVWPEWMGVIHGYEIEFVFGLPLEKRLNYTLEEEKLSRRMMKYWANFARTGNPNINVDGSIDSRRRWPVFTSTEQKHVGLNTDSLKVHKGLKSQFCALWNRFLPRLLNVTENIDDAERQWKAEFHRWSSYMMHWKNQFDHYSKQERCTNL

SMILES | pIC50
CN1C(=O)C(F)=C[C@@H]2[C@H]1C[C@H]2S(=O)(=O)NCCc1ccccc1F | 4.90
CN1C(=O)C(F)=C[C@@H]2[C@H]1C[C@H]2S(=O)(=O)NCCc1ccc(F)cc1 | 5.47
CN1C(=O)C(F)=C[C@@H]2[C@H]1C[C@H]2S(=O)(=O)N1CCC(Cc2ccc(F)cc2)CC1 | 5.08
O=C1N[C@@H]2C[C@@H](S(=O)(=O)NCCC3CCN(Cc4ccccc4)CC3)[C@@H]2c2c(Br)cccc21 | 6.55
CN1C(=O)C(F)=C[C@@H]2[C@H]1C[C@H]2S(=O)(=O)NCCC1CCN(Cc2ccccc2)CC1 | 6.47
CN1C(=O)C(F)=C[C@@H]2[C@H]1C[C@H]2S(=O)(=O)N1CCOCC1 | 5.74
CCCNS(=O)(=O)[C@@H]1C[C@@H]2[C@H]1C=C(F)C(=O)N2C | 5.25
O=C1N[C@@H]2C[C@@H](S(=O)(=O)NCCC3CCN(Cc4ccccc4)CC3)[C@@H]2c2c(Cl)cccc21 | 7.00
CN1C(=O)C(F)=C[C@@H]2[C@H]1C[C@H]2S(=O)(=O)CC1CCN(Cc2ccccc2F)CC1 | 5.30

Target: T1, Acetylcholinesterase
Test: Inhibition of electric eel AChE using acetylthiocholine iodide as substrate preincubated for 20 mins followed by substrate addition and measured after 20 mins by DTNB reagent based Ellman's method
Details: not given

SMILES | pIC50
O=C1N[C@@H]2C[C@@H](S(=O)(=O)F)[C@@H]2c2c(Cl)cccc21 | 5.17
CN1C(=O)C(F)=C[C@@H]2[C@H]1C[C@H]2S(=O)(=O)NCCc1ccccc1F | 4.97
CN1C(=O)C(F)=C[C@@H]2[C@H]1C[C@H]2S(=O)(=O)NCCc1ccc(F)cc1 | 5.34
CN1C(=O)C(F)=C[C@@H]2[C@H]1C[C@H]2S(=O)(=O)N1CCC(Cc2ccc(F)cc2)CC1 | 5.10
O=C1N[C@@H]2C[C@@H](S(=O)(=O)NCCC3CCN(Cc4ccccc4)CC3)[C@@H]2c2c(Br)cccc21 | 6.62
CN1C(=O)C(F)=C[C@@H]2[C@H]1C[C@H]2S(=O)(=O)NCCC1CCN(Cc2ccccc2)CC1 | 6.42
CN1C(=O)C(F)=C[C@@H]2[C@H]1C[C@H]2S(=O)(=O)N1CCOCC1 | 5.89
CCCNS(=O)(=O)[C@@H]1C[C@@H]2[C@H]1C=C(F)C(=O)N2C | 5.17
O=C1N[C@@H]2C[C@@H](S(=O)(=O)NCCC3CCN(Cc4ccccc4)CC3)[C@@H]2c2c(Cl)cccc21 | 7.03
CN1C(=O)C(F)=C[C@@H]2[C@H]1C[C@H]2S(=O)(=O)F | 4.73
CN1C(=O)C(F)=C[C@@H]2[C@H]1C[C@H]2S(=O)(=O)CC1CCN(Cc2ccccc2F)CC1 | 5.27

Target: T1, Acetylcholinesterase
Test: Inhibition of electric eel AChE assessed as inhibition constant using acetylthiocholine iodide as substrate by Lineweaver-Burk plot analysis
Details: not given

SMILES | pKi
O=C1N[C@@H]2C[C@@H](S(=O)(=O)NCCC3CCN(Cc4ccccc4)CC3)[C@@H]2c2c(Cl)cccc21 | 6.89

Test system: PC-12
Test: Neuroprotective activity against H2O2-induced injury in rat PC12 cells assessed as increase in cell viability at 25 uM preincubated for 3 hrs followed by H2O2 addition and measured after 24 hrs by MTT assay relative to control
Assay type: functional
Details: time 27 hrs

SMILES | Activity [%]
O=C1N[C@@H]2C[C@@H](S(=O)(=O)NCCC3CCN(Cc4ccccc4)CC3)[C@@H]2c2c(Cl)cccc21 | 77.2

Test system: Mus musculus
Test: Neuroprotective activity against amyloid beta 1-42 peptide induced ICR mouse assessed as increase in number of neurons in hippocampus at 5 mg/kg,po administration by hematoxylin-eosin staining based microscopic analysis
Assay type: functional, organism-based
Details: not given

SMILES | Activity
O=C1N[C@@H]2C[C@@H](S(=O)(=O)NCCC3CCN(Cc4ccccc4)CC3)[C@@H]2c2c(Cl)cccc21 | Active

Target: Acetylcholinesterase (Electrophorus electricus) (UniProt O42275)
Test: Inhibition of electric eel AChE using acetylthiocholine iodide as substrate at 20 uM preincubated for 20 mins followed by substrate addition and measured after 20 mins by DTNB reagent based Ellman's method
Details: time 40.0 min

Sequence of Acetylcholinesterase (Electrophorus electricus) (O42275 24-633 limits assumed): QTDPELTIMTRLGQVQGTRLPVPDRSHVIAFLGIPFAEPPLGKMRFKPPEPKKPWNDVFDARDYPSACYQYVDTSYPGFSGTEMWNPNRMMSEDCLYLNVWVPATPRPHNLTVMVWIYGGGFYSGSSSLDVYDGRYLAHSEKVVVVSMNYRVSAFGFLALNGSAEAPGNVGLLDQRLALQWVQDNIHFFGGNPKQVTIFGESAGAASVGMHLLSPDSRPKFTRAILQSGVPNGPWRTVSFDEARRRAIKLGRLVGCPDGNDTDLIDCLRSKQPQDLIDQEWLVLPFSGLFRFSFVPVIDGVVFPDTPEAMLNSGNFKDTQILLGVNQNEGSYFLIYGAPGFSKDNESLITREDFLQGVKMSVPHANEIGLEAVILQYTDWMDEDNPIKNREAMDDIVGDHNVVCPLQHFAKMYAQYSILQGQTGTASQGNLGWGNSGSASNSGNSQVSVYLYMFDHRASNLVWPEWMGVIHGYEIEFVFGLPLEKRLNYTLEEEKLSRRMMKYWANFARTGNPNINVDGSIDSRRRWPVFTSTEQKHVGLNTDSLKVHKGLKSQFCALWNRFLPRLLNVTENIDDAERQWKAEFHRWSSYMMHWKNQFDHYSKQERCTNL

SMILES | inhibition
O=C1N[C@@H]2C[C@@H](S(=O)(=O)F)[C@@H]2c2c(Cl)cccc21 | Active
O=C1N[C@@H]2C[C@@H](S(=O)(=O)F)[C@@H]2c2c(Br)cccc21 | Active

Target: Cholinesterase (Equus caballus) (UniProt P81908)
Test: Inhibition of equine serum BuChE using butyrylthiocholine iodide as substrate at 20 uM preincubated for 20 mins followed by substrate addition and measured after 20 mins by DTNB reagent based Ellman's method
Assay type: cell-free
Details: time 40.0 min

Sequence of Cholinesterase (Equus caballus) (P81908 whole entry): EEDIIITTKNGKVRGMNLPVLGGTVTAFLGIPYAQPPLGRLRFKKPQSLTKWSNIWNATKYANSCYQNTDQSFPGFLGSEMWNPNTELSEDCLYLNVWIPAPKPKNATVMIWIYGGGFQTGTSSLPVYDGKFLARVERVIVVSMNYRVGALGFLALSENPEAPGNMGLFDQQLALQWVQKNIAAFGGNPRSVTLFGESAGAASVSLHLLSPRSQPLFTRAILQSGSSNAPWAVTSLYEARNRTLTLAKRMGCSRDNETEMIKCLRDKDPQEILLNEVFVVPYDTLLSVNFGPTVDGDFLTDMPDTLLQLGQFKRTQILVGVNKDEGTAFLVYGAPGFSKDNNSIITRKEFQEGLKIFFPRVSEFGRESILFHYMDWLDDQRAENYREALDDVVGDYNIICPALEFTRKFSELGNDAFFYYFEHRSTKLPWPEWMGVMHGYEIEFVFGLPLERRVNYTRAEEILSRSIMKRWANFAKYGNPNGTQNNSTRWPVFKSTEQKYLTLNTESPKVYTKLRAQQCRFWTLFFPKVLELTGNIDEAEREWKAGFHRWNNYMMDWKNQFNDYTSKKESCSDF

SMILES | inhibition
O=C1N[C@@H]2C[C@@H](S(=O)(=O)F)[C@@H]2c2c(Cl)cccc21 | Active
O=C1N[C@@H]2C[C@@H](S(=O)(=O)F)[C@@H]2c2c(Br)cccc21 | Active

Target: Cholinesterase (Equus caballus, UniProt P81908)
Test: Inhibition of equine serum BuChE using butyrylthiocholine iodide as substrate preincubated for 20 mins followed by substrate addition and measured after 20 mins by DTNB reagent based Ellman's method
Assay type: cell-free
Details: not given

Sequence of Cholinesterase (P81908 whole entry): as above

SMILES | pIC50
O=C1N[C@@H]2C[C@@H](S(=O)(=O)F)[C@@H]2c2c(Cl)cccc21 | 5.10
CN1C(=O)C(F)=C[C@@H]2[C@H]1C[C@@]2(Br)S(=O)(=O)F | 4.85
CC1=C[C@@H]2[C@@H](C[C@@]2(Br)S(=O)(=O)F)N(C)C1=O | 4.97
O=C1N[C@@H]2C[C@@H](S(=O)(=O)F)[C@@H]2c2c(Br)cccc21 | 5.48
Cc1ccc2c(c1)[C@H]1[C@H](S(=O)(=O)F)C[C@H]1NC2=O | 5.30
CN1C(=O)c2ccccc2[C@@H]2[C@H]1C[C@H]2S(=O)(=O)F | 4.92

Test system: Mus musculus
Test: Neuroprotective activity against amyloid beta 1-42 peptide induced ICR mouse assessed as decrease in cognitive function impairment at 5 mg/kg,po administration
Assay type: functional, organism-based
Details: not given

SMILES | Activity
O=C1N[C@@H]2C[C@@H](S(=O)(=O)NCCC3CCN(Cc4ccccc4)CC3)[C@@H]2c2c(Cl)cccc21 | Active

Test system: Mus musculus
Test: Neuroprotective activity against amyloid beta 1-42 peptide induced ICR mouse assessed as reduction in latency at 5 mg/kg,po administration
Assay type: functional, organism-based
Details: not given

SMILES | Activity
O=C1N[C@@H]2C[C@@H](S(=O)(=O)NCCC3CCN(Cc4ccccc4)CC3)[C@@H]2c2c(Cl)cccc21 | Active
